Assay results: US20200261421A1, “HETEROCYCLIC COMPOUNDS AS HIV PROTEASE INHIBITORS” (Merck Sharp & Dohme Corp., priority 2016, published 2020)
pIC50: −log10 of the molar value.

The molecules below were run against T1, wild-type HIV-1 protease (Human immunodeficiency virus type 1 group M subtype B, UniProt P04585) (assay: Assay for Inhibition of Microbial Expressed HIV Protease). Details: Escherichia coli expressed wild-type HIV-1 protease, peptide substrate cleavage; mean of at least two independent experiments.
T1 construct: Escherichia coli expressed wild-type HIV-1 protease protein; made in house; host or cells: Escherichia coli
Assay type: biochemical
How it was run: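 E. coli-expressed wild-type HIV-1 protease (20 pM) was preincubated with inhibitor for 30 min at room temperature in 50 mM sodium acetate pH 5.5, 100 mM NaCl, 0.1% BSA. It was then reacted with 400 μM peptide substrate for 1 h at 30 °C. Cleavage product was quantified by LC-MS/MS, and IC50 is the mean of at least two experiments.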

Row | Compound | pIC50
1 | CN(C)C(=O)c1cccc(C2(c3ccc(F)cc3)NC(=N)N(Cc3cccc(C(=O)N(C)Cc4ccc(Cl)cc4)c3)C2=O)c1 (stereo not drawn) [Example 34, 3-[1-{3-[(4-chlorobenzyl)(methyl)-carbamoyl]benzyl}-4-(4-fluorophenyl)-2-imino-5-oxoimidazolidin-4-yl]-N,N-dimethylbenzamide] | 7.70
2 | [2H]C([2H])([2H])N(C(=O)c1cccc(CN2C(=N)NC(c3ccc(F)cc3)(c3ccc(F)cc3)C2=O)c1)[C@H](C)c1ccc(F)cc1 [Example 50, 3-{[4,4-bis(4-fluorophenyl)-2-imino-5-oxoimidazolidin-1-yl]methyl}-N-[(1R)-1-(4-fluorophenyl)ethyl]-N(~2~H_3_)methylbenzamide] | 7.35
3 | C[C@H](c1ccccc1)N(C)C(=O)c1cccc(CN2C(=N)NC(c3ccccc3)(c3ccccc3)C2=O)c1 [Example 48, 3-[(2-imino-5-oxo-4,4-diphenylimidazolidin-1-yl)methyl]-N-methyl-N-[(1R)-1-phenylethyl]benzamide] | 7.40
4 | CC(C)CCC1(c2cccc(-c3cccnc3)c2)NC(=N)N(Cc2cccc(C(=O)N(C)Cc3ccc(C#N)cc3)c2)C1=O (stereo not drawn) [Example 31, N-(4-cyanobenzyl)-3-{[2-imino-4-(3-methylbutyl)-5-oxo-4-(3-pyridin-3-ylphenyl)imidazolidin-1-yl]methyl}-N-methylbenzamide] | 7.72
5 | N#Cc1ccc(CNC(=O)c2cc(CN3C(=N)NC(c4ccc(F)cc4)(c4ccc(F)cc4)C3=O)ccc2C(F)(F)F)cc1 [Example 5, 5-{[4,4-bis(4-fluorophenyl)-2-imino-5-oxoimidazolidin-1-yl]methyl}-N-(4-cyanobenzyl)-2-(trifluoromethyl)benzamide] | 7.37
6 | CC(C)CCC1(c2ccccc2)NC(=N)N(Cc2cccc(C(=O)N(C)[C@H](C)c3ccc(F)cc3)c2)C1=O (stereo partly drawn) [Example 24, N-[(1R)-1-(4-fluorophenyl)ethyl]-3-{[2-imino-4-(3-methylbutyl)-5-oxo-4-phenylimidazolidin-1-yl]methyl}-N-methylbenzamide] | 7.88
7 | CC(C)CCC1(c2ccc(F)cc2)NC(=N)N(Cc2cccc(C(=O)N(C)Cc3ccc(Cl)cc3)c2)C1=O (stereo not drawn) [Example 22, N-(4-chlorobenzyl)-3-{[4-(4-fluorophenyl)-2-imino-4-(3-methylbutyl)-5-oxoimidazolidin-1-yl]methyl}-N-methylbenzamide] | 7.89
8 | CC(C)CCC1(c2cccc(F)c2)NC(=N)N(Cc2cccc(C(=O)N(C)Cc3ccc(Cl)cc3)c2)C1=O (stereo not drawn) [Example 49, N-(4-chlorobenzyl)-3-{[4-(3-fluorophenyl)-2-imino-4-(3-methylbutyl)-5-oxoimidazolidin-1-yl]methyl}-N-methylbenzamide] | 7.36
9 | CN(Cc1ccc(Cl)cn1)C(=O)c1cncc(CN2C(=N)NC(c3ccc(F)cc3)(c3ccc(F)cc3)C2=O)c1 [Example 82, 5-{[4,4-bis(4-fluorophenyl)-2-imino-5-oxoimidazolidin-1-yl]methyl}-N-[(5-chloropyridin-2-yl)methyl]-N-methylpyridine-3-carboxamide] | 7.36
10 | CC(C)CCC1(c2ccccc2)NC(=N)N(Cc2cc(C(=O)N(C)Cc3ccc(C#N)cc3)ccn2)C1=O (stereo not drawn) [Example 88, N-(4-cyanobenzyl)-2-{[2-imino-4-(3-methylbutyl)-5-oxo-4-phenylimidazolidin-1-yl]methyl}-N-methylpyridine-4-carboxamide] | 7.77
11 | CN(Cc1ccccc1S(C)(=O)=O)C(=O)c1ccnc(CN2C(=N)NC(c3ccccc3)(c3ccccc3)C2=O)c1 [Example 92, 2-[(2-imino-5-oxo-4,4-diphenylimidazolidin-1-yl)methyl]-N-methyl-N-[2-(methylsulfonyl)benzyl]pyridine-4-carboxamide] | 7.28
12 | CN(Cc1ccc(F)cc1)C(=O)c1cccc(CN2C(=N)NC(c3ccc(F)cc3)(c3ccc(F)cc3)C2=O)c1 [Example 28, 3-{[4,4-bis(4-fluorophenyl)-2-imino-5-oxoimidazolidin-1-yl]methyl}-N-(4-fluorobenzyl)-N-methylbenzamide] | 7.76
13 | CC(C)CC1(c2ccccc2)NC(=N)N(Cc2cc(C(=O)N(C)Cc3ccc(C#N)cc3)ccn2)C1=O (stereo not drawn) [Example 87, N-(4-cyanobenzyl)-2-{[2-imino-4-(2-methylpropyl)-5-oxo-4-phenylimidazolidin-1-yl]methyl}-N-methylpyridine-4-carboxamide] | 7.81
14 | CC(C)CC1(CC(C)C)NC(=N)N([C@H](C)c2cccc(C(=O)N(C)Cc3ccc(F)cc3)c2)C1=O [Example 70, N-(4-fluorobenzyl)-3-{(1R)-1-[2-imino-4,4-bis(2-methylpropyl)-5_ oxoimidazolidin-1-yl]ethyl}-N-methylbenzamide] | 7.00
15 | CC(C)CCC1(c2ccccc2)NC(=N)N(Cc2ccc(C(F)(F)F)c(C(=O)NCc3ncccn3)c2)C1=O (stereo not drawn) [Example 8, 5-{[2-imino-4-(3-methylbutyl)-5-oxo-4-phenylimidazolidin-1-yl]methyl}-N-(pyrimidin-2-ylmethyl)-2-(trifluoromethyl)benzamide] | 7.26
